# Measured values from US20250375503A1, “Method and System for Tuning Hormone Receptors through the Dynamic Intravenous Delivery of a Hormone According to a Target Physiological Cadence” (Well Cell Global LLC, priority 2024, published 2025).
# Test system: human kidney
# Assay: periodic infusion of insulin into a perfused, extracted three-day-old human kidney (similar to PIR treatment)
# Text: For example, using a three-day-old human kidney that was extracted or otherwise removed from the human body, after a control period, the kidney was augmented with a periodic infusion of insulin for approximately two hours at a concentration similar to the amount of insulin projected to be seen by a kidney in situ in a person who would receive physiological insulin resensitization (PIR) treatment.
# The perfusate was sampled before and after passing through the kidney at five-to-fifteen-minute intervals to determine if glucose was being removed and to determine any changes in electrolytes, such as sodium and potassium.
# The ability of the kidney to generate and excrete urine was monitored via a catheter attached to a ureter.
# Two-millimeter punch biopsies were examined approximately every fifteen minutes with a specialized Acquyre Biosciences microscope that produces pseudo-colored images at a cellular level that reflect the extent of intracellular organellar movement. Intracellular movement is dependent on the availability of cytoplasmic ATP (adenosine triphosphate).
substance,measurement,setting,value
insulin,ability of the kidney to generate and excrete urine,"monitored via catheter attached to a ureter, after about one hour of treatment, no excretion during control period",the kidney began to excrete urine
same,glucose ingested by the kidney from the perfusate,"perfusate sampled before and after passing through the kidney at five-to-fifteen-minute intervals, periodic insulin infusion for approximately two hours, versus control period",well in excess of the control level
same,"alteration of electrolyte concentrations (sodium, potassium) in the perfusate","perfusate sampled before and after passing through the kidney, periodic insulin infusion, versus control period",better alter the electrolyte concentrations in a manner similar to a kidney in situ
same,intracellular organellar movement in punch biopsies (reflects cytoplasmic ATP),"two-millimeter punch biopsies, Acquyre Biosciences microscope, after approximately thirty minutes of perfusion, relative to control period",obvious increase in intracellular movement relative to the control period
